Measurements published in US10647679B2, “N-methyl-D-aspartate receptor (NMDAR) potentiators, pharmaceutical compositions, and uses related thereto” (Emory University, priority 2015, dated 2020).
Read-outs that look alike come from different tables or passages of the source. Each block holds one molecule with its values, some of them ahead of it.

Legend:
Assay type in all cases: cell-based
[1] = target: T1, recombinant rat GluN1/GluN2B (Rattus norvegicus, UniProt P35439+Q00960); test: Two-electrode voltage-clamp (TEVC) recordings in Xenopus laevis oocytes, GluN1/GluN2B
T1 construct: expressed in transfected cells; host or cells: Xenopus laevis oocytes (Ecocyte) injected with in vitro transcribed cRNA
T1 sequence (Q00960 27-1482, other chains not shown): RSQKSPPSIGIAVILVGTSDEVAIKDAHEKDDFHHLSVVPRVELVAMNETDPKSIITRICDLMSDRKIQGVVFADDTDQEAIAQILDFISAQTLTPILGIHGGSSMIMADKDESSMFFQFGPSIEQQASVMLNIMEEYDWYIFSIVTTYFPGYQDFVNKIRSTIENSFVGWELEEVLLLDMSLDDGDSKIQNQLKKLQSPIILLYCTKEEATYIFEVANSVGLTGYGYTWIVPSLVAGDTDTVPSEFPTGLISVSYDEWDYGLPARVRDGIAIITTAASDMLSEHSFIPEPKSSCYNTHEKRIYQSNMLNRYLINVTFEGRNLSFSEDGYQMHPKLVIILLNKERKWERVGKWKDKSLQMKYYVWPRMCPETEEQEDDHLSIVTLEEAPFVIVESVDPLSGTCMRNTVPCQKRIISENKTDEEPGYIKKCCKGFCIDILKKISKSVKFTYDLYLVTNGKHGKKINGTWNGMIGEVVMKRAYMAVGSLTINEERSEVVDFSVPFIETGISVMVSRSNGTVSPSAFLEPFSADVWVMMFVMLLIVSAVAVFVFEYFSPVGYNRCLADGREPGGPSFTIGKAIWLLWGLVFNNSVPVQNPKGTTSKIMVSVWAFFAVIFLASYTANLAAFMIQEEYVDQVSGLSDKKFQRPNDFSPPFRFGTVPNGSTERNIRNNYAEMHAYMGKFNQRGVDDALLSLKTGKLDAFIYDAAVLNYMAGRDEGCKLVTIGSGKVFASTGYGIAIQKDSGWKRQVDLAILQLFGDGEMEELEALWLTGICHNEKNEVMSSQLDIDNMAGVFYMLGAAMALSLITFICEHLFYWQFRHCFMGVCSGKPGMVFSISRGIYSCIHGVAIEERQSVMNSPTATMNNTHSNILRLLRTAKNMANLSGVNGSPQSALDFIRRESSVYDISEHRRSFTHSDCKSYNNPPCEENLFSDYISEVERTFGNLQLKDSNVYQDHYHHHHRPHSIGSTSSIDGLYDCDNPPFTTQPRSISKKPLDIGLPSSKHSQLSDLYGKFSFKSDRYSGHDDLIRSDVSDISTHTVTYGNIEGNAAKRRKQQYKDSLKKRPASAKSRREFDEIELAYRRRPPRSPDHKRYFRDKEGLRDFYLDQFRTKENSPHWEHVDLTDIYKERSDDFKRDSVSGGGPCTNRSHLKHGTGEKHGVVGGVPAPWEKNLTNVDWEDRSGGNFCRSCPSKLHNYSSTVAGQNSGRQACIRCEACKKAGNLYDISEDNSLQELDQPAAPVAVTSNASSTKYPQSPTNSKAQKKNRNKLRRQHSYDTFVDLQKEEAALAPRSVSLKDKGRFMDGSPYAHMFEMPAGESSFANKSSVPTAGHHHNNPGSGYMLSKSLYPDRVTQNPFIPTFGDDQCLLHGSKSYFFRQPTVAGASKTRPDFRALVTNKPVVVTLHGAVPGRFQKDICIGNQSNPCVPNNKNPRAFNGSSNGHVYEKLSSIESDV
Method: (§1) Data are from between 3-26 oocytes from 2-5 frogs for each compound and receptor tested.
(§2) Two-electrode voltage-clamp recordings were performed in Xenopus laevis oocytes (Ecocyte) expressing recombinant rat GluN1/GluN2A, GluN1/GluN2B, GluN1/GluN2C, GluN1/GluN2D. cRNA was transcribed in vitro (Ambion), diluted with nuclease free water, and injected at a ratio of 1:2 GluN1:GluN2 (5-10 ng total cRNA). The oocytes were kept in Barth's solution comprised of (in mM) 88 NaCl, 5 Tris-HCl, 2.4 NaHCO3, 1 KCl, 0.84 MgSO4, 0.41 CaCl2, and 0.33 Ca(NO3)2 at pH 7.4 at 15-17° C. for two to five days before experiments. Oocytes were placed into a perfusion chamber and continually washed with recording solution containing (in mM) 90 NaCl, 1.0 KCl, 0.5 BaCl2, 0.005 EDTA, and 10 HEPES at pH 7.4 (23° C.). Voltage clamp recordings were conducted at a holding potential of −40 mV. All compounds were made as 20 mM stock solutions in DMSO and dissolved to reach the final concentration in recording solution. Final DMSO content was 0.05-0.5% (vol/vol). Some oocytes expressing GluN1/GluN2A were pretreated with […] BAPTA-AM for 10 minutes or injected with […] of 2 mM K-BAPTA to prevent gradual run-up of the current response.

[2] = target: T2, recombinant rat GluN1/GluN2C (Rattus norvegicus, UniProt P35439+Q00961); test: Two-electrode voltage-clamp (TEVC) recordings in Xenopus laevis oocytes, GluN1/GluN2C
T2 construct: expressed in transfected cells; host or cells: Xenopus laevis oocytes (Ecocyte) injected with in vitro transcribed cRNA
T2 sequence (Q00961 20-1237, other chains not shown): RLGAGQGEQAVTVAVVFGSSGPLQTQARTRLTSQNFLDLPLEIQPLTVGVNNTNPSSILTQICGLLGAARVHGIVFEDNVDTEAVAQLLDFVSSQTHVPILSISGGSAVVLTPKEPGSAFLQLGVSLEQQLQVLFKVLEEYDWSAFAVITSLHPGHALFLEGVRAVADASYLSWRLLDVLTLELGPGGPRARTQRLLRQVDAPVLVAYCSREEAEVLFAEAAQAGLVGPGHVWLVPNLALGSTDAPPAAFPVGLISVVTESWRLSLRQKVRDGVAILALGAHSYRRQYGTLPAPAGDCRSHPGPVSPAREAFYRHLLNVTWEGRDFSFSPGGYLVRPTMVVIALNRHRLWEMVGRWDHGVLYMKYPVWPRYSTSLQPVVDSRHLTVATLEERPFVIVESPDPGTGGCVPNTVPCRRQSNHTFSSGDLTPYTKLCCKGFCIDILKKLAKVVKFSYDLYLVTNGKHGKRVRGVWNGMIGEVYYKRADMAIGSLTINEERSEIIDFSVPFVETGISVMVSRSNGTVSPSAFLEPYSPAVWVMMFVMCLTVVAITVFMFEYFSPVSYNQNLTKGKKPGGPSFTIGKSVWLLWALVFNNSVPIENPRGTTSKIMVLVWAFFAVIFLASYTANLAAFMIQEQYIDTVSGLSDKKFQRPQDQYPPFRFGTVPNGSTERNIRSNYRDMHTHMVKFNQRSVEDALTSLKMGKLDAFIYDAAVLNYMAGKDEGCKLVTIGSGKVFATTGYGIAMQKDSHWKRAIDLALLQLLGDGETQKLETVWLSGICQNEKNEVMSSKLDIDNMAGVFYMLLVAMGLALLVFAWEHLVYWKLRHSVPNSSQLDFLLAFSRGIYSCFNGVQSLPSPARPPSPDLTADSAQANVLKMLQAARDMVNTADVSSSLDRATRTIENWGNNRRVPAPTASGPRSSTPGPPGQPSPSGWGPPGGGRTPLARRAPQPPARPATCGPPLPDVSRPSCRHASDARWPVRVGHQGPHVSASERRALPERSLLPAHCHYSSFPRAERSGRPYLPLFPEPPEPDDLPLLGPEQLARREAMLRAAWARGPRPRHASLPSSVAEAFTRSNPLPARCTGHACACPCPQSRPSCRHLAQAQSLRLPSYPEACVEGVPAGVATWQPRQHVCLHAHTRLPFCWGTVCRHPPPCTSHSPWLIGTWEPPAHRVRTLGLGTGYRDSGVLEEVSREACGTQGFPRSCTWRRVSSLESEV
Method: as §1, §2

[3] = target: T3, recombinant rat GluN1/GluN2D (Rattus norvegicus, UniProt P35439+Q62645); test: Two-electrode voltage-clamp (TEVC) recordings in Xenopus laevis oocytes, GluN1/GluN2D
T3 construct: expressed in transfected cells; host or cells: Xenopus laevis oocytes (Ecocyte) injected with in vitro transcribed cRNA
Method: as §1, §2

[4] = target: T4, recombinant rat GluN1/GluN2B (Rattus norvegicus, UniProt Q00960); test: Two-electrode voltage-clamp (TEVC) recordings in Xenopus laevis oocytes, GluN1/GluN2B; conditions: for I30 μM/Icontrol (mean ± SEM, %) GluN2B: 30 μM compound, Tables 5-7
T4 construct: expressed in transfected cells; host or cells: Xenopus laevis oocytes (Ecocyte) injected with in vitro transcribed cRNA
T4 sequence (Q00960 27-1482, other chains not shown): as the sequence (Q00960 27-1482, other chains not shown) above
Method: as §1, §2

[5] = target: T5, recombinant rat GluN1/GluN2C (Rattus norvegicus, UniProt Q00961); test: Two-electrode voltage-clamp (TEVC) recordings in Xenopus laevis oocytes, GluN1/GluN2C; conditions: 30 μM compound; Tables 5-7
T5 construct: expressed in transfected cells; host or cells: Xenopus laevis oocytes (Ecocyte) injected with in vitro transcribed cRNA
T5 sequence (Q00961 20-1237, other chains not shown): as the sequence (Q00961 20-1237, other chains not shown) above
Method: as §1, §2

[6] = target: T6, recombinant rat GluN1/GluN2D (Rattus norvegicus, UniProt Q62645); test: Two-electrode voltage-clamp (TEVC) recordings in Xenopus laevis oocytes, GluN1/GluN2D; conditions: 30 μM compound; Tables 5-7
T6 construct: expressed in transfected cells; host or cells: Xenopus laevis oocytes (Ecocyte) injected with in vitro transcribed cRNA
Method: as §1, §2

[7] = maximum potentiation, response without modulator = 100%, read-out: GluN2B EC50 (μM)/Max %: Max %
[8] = maximum potentiation, response without modulator = 100%, read-out: GluN2C EC50 (μM)/Max %: Max %
[9] = maximum potentiation, response without modulator = 100%, read-out: GluN2D EC50 (μM)/Max %: Max %
[10] = Tables 11-13, read-out: EC50 & Max Effect: 2C Max (%)
[11] = Tables 11-13, read-out: EC50 & Max Effect: 2D Max (%)
[12] = untitled tables after drawing 25 and drawing 36, read-out: EC50 (μM) GluN2B
[13] = untitled tables after drawing 25 and drawing 36, read-out: EC50 (μM) GluN2C
[14] = untitled tables after drawing 25 and drawing 36, read-out: EC50 (μM) GluN2D
[15] = Tables 11-13, read-out: EC50 & Max Effect: 2C
[16] = Tables 11-13, read-out: EC50 & Max Effect: 2D
[17] = fitted when potentiation at 30 μM exceeded 120%, Tables 3, 5-7, read-out: EC50 (max.) (μM %) GluN2B: fitted EC50
[18] = percentage of the initial glutamate (100 μM) and glycine (30 μM) current, read-out: EC50 (max.) (μM %) GluN2B: fitted maximum response
[19] = fitted when potentiation at 30 μM exceeded 120%, Tables 3, 5-7, read-out: EC50 (max.) (μM %) GluN2C: fitted EC50
[20] = percentage of the initial glutamate (100 μM) and glycine (30 μM) current, read-out: EC50 (max.) (μM %) GluN2C: fitted maximum response
[21] = read-out: EC50 & Max Effect: 2C Max (%)
[22] = read-out: EC50 & Max Effect: 2D Max (%)

Compound: COc1ccc(OCC2c3ccc(N(C)C)cc3CCN2C(=O)c2cccc(Cl)c2)cc1 (centres unmarked) [1180-104]
Emax [1, 7]: 132% | Emax [2, 8]: 315% | Emax [3, 9]: 349%

Compound: CC(C)Oc1ccc(OCC2c3ccc(OC(C)C)cc3CCN2C(=S)c2cccc(Cl)c2)cc1 (centres unmarked) [1180-265]
EC50 [1, 12]: 0.6 µM | EC50 [2, 13]: 0.3 µM | EC50 [3, 14]: 0.4 µM

Compound: COc1ccc(OCC2c3ccc(OC)cc3CCN2C(=O)c2ccc(Cl)o2)cc1 (centres unmarked) [1180-234]
GluN2B response % at 30 µM ([4]; at 30 µM): 107% at 30 | EC50 [2, 13]: 2.6 µM | EC50 [3, 14]: 5.5 µM

Compound: COc1ccc(OCC2c3ccc(OCc4ccccc4)cc3CCN2C(=O)c2cccc(Br)c2)cc1 (centres unmarked) [drawing 33 R1=Br R2=H R3=H R4=OBn R5=H]
EC50 ([2]; EC50 & Max Effect: 2C (μM)): 0.31 µM | Emax [2, 21]: 257% | EC50 ([3]; EC50 & Max Effect: 2D (μM)): 0.27 µM | Emax [3, 22]: 219%

Compound: CCOc1ccc(OCC2c3ccc(OC(C)C)cc3CCN2C(=O)c2ccc(F)c(Cl)c2)cc1 (centres unmarked) [1180-144]
Emax [1, 7]: 182% | Emax [2, 8]: 175% | Emax [3, 9]: 135%

Compound: CCOc1ccc(OC[C@@H]2c3ccc(OC(C)C)cc3CCN2C(=O)c2cccc(C(F)(F)F)c2)cc1 [(S)-(−)-1180-92]
EC50 [1, 17]: 1.9 µM | Emax [1, 18]: 210% | I30 μM/Icontrol (mean ± SEM, %) GluN2B [4]: 207% | EC50 [2, 19]: 1.2 µM | Emax [2, 20]: 141% | I30 μM/Icontrol (mean ± SEM, %) GluN2C [5]: 132% | I30 μM/Icontrol (mean ± SEM, %) GluN2D [6]: 116%

Compound: CCOc1ccc(OCC2c3ccc(OC4CCCC4)cc3CCN2C(=O)c2cccc(F)c2)cc1 (centres unmarked) [1180-112]
EC50 [2, 15]: 4.1 µM | Emax [2, 10]: 170% | EC50 [3, 16]: 4.2 µM | Emax [3, 11]: 157%

Compound: CCOc1ccc(OCC2c3ccc(OC(C)C)cc3CCN2C(=S)Nc2cccc(Cl)c2)cc1 (centres unmarked) [1180-210]
Emax [2, 8]: 173% | Emax [3, 9]: 174%

Compound: COc1ccc(OC[C@@H]2c3cc(OC)c(OC)cc3CCN2C(=O)c2cccc(Cl)c2)cc1 [S-1390]
EC50 ([2]; EC50 & Max Effect: 2C (μM)): 6.1 µM | Emax [2, 21]: 275% | Emax [3, 22]: 299%

More lines, now with the values ahead:

Emax [2, 10]: 293% | Emax [3, 11]: 327%
Compound: COc1ccc(OCC2c3ccc(N(C)C)cc3CCN2C(=O)c2cccc(Br)c2)cc1 (centres unmarked) [drawing 33 R1=Br R2=H R3=H R4=NMe2 R5=H]

EC50 [1, 12]: 1.6 µM | EC50 [2, 13]: 0.9 µM | EC50 [3, 14]: 1 µM
Compound: COc1ccc(OCC2c3ccc(OC)cc3CCN2C(=O)c2ccc(Cl)s2)cc1 (centres unmarked) [1180-239]

EC50 [2, 15]: 0.4 µM | Emax [2, 10]: 226% | EC50 [3, 16]: 0.43 µM | Emax [3, 11]: 213%
Compound: COc1ccc(OCC2c3ccc(SCc4ccccc4)cc3CCN2C(=O)c2cccc(Cl)c2)cc1 (centres unmarked) [drawing 33 R1=Cl R2=H R3=H R4=SBn R5=H]

EC50 [1, 17]: 6.7 µM | Emax [1, 18]: 206% | I30 μM/Icontrol (mean ± SEM, %) GluN2B [4]: 195% | EC50 [2, 19]: 7.6 µM | Emax [2, 20]: 132% | I30 μM/Icontrol (mean ± SEM, %) GluN2C [5]: 131% | I30 μM/Icontrol (mean ± SEM, %) GluN2D [6]: 119%
Compound: CCOc1ccc(OC[C@@H]2c3ccc(OC(C)C)cc3CCN2C(=O)c2cccc(F)c2)cc1 [(S)-(−)-1180-87]

EC50 [1, 17]: 1.4 µM | Emax [1, 7]: 130% | Emax [1, 18]: 134% | I30 μM/Icontrol (mean ± SEM, %) GluN2B [4]: 120% | EC50 [2, 19]: 0.65 µM | Emax [2, 8]: 137% | Emax [2, 20]: 139% | I30 μM/Icontrol (mean ± SEM, %) GluN2C [5]: 134% | I30 μM/Icontrol (mean ± SEM, %) GluN2D [6]: 101%
Compound: CCOc1ccc(OCC2c3ccc(OC(C)C)cc3CCN2C(=O)c2ccc(Cl)c(Cl)c2)cc1 (centres unmarked) [1180-103]

Emax [2, 10]: 197% | Emax [3, 11]: 211%
Compound: COc1ccc(OCC2c3cc(C)c(C)cc3CCN2C(=O)c2cccc(Br)c2)cc1 (centres unmarked) [drawing 33 R1=Br R2=H R3=H R4=Me R5=Me]

Emax [1, 7]: 187% | Emax [2, 8]: 161% | Emax [3, 9]: 130%
Compound: CCOc1ccc(OCC2c3ccc(OC(C)C)cc3CCN2C(=S)c2cccc(Br)c2)cc1 (centres unmarked) [1180-156]

EC50 [2, 15]: 12.3 µM | Emax [2, 10]: 450% | EC50 [3, 16]: 11.4 µM | Emax [3, 11]: 156%
Compound: COc1ccc(OCC2c3cc(OC)c(OC)cc3CCN2C(=O)c2ccccc2)cc1 (centres unmarked) [drawing 33 R1=H R2=H R3=H R4=OMe R5=OMe]

Emax [1, 7]: 184% | Emax [2, 8]: 179% | Emax [3, 9]: 145%
Compound: CCOc1ccc(OCC2c3ccc(OC(C)C)cc3CCN2C(=S)c2cccc(Cl)c2)cc1 (centres unmarked) [1180-149]

Emax [2, 8]: 134% | Emax [3, 9]: 127%
Compound: COc1ccc(OCC2c3ccc(N(C)C)cc3CCN2C(=S)c2cccc(Cl)c2)cc1 (centres unmarked) [1180-167]
